The source of these data is PubChem BioAssay (NCI).

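Method: 48-hour compound exposure of cells in 96-well plates, five concentrations, linear interpolation of endpoints. At the GI50, growth is halved. TGI is the concentration that stops growth completely.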

Among the test systems are 786-0 renal; COLO 205 colon; HOP-18 NSCLC; M19-MEL melanoma; SNB-78 CNS; DMS 273 small cell lung; HS 578T breast; MDA-MB-231 breast; NCI/ADR-RES ovarian; T-47D breast.
Common to all, as to experiment: growth of human tumour cells (NCI), 48 h

In the case of `Cc1cc2c(=O)c3ccccc3[nH]c2c(C(N)=O)c1C`, the TGI in the experiment on 786-0 renal, in the experiment with COLO 205 colon, in the experiment on HOP-18 NSCLC, in the experiment with M19-MEL melanoma and in the experiment with SNB-78 CNS was greater than 100 µM throughout.
For `COc1cc(OC)c2c(=O)cc(-c3ccc(OC)c(OC)c3OC)oc2c1`, the TGI in the experiment on 786-0 renal, in the experiment with COLO 205 colon and in the experiment on M19-MEL melanoma was greater than 100 µM in each case.
For `O=C(OC1CCC(=C2SCCCS2)[C@H]1C1SCCCS1)c1ccccc1` (stereo partly specified), the TGI in the experiment on 786-0 renal, in the experiment on COLO 205 colon, with DMS 273 small cell lung and with M19-MEL melanoma was greater than 100 µM throughout.
Regarding `O=C(CC1C(=O)Nc2ccccc2S1=O)Nc1cc(Cl)ccc1Cl` (stereo unspecified), the TGI in the experiment with 786-0 renal, in the experiment on DMS 273 small cell lung, in the experiment on M19-MEL melanoma and in the experiment with SNB-78 CNS was greater than 100 µM in each case.
For the compound `C=CCCCCC1CCC2CCC(CCCCC=C)N12` (stereo unspecified), the TGI stood at 26.9 µM in the experiment on 786-0 renal; 32.5 µM with COLO 205 colon; 37.5 µM in the experiment with DMS 273 small cell lung; 60.9 µM in the experiment on HOP-18 NSCLC; 37.3 µM with M19-MEL melanoma.
With `Cc1ccc2nc(/C(=C/c3ccc(/C=C(\NC(=O)c4ccccc4)c4nc5ccc(C)cc5[nH]4)c(C)c3)NC(=O)c3ccccc3)[nH]c2c1`, the TGI was 60.4 µM in the experiment on 786-0 renal; 80.4 µM in the experiment with COLO 205 colon; greater than 100 µM in the experiment with DMS 273 small cell lung; 44.8 µM in the experiment on M19-MEL melanoma; 79.1 µM with SNB-78 CNS.
As for `COC(=O)C(=Cc1cc(OC)c(OC)c(OC)c1-c1cc2c(cc1C1(C)OCCS1)OCO2)C(=O)OC` (stereo unspecified), the TGI in the experiment on 786-0 renal is greater than 100 µM; in the experiment on COLO 205 colon, greater than 100 µM; in the experiment on DMS 273 small cell lung it was 75.1 µM; in the experiment on M19-MEL melanoma, greater than 100 µM.
In the case of `CC12CCC(=O)C[C@H]1CCC(OC=O)C2Br` (stereo partly specified), the TGI with 786-0 renal, in the experiment on COLO 205 colon, in the experiment on DMS 273 small cell lung, with HOP-18 NSCLC and in the experiment on M19-MEL melanoma was greater than 100 µM in each case.
Turning to `O=C(/C(=C/c1ccc(Cl)cc1)c1ccccc1)c1ccccc1`, the TGI with 786-0 renal was 56.4 µM; in the experiment with COLO 205 colon, 33 µM; with HOP-18 NSCLC, 62.3 µM; in the experiment with SNB-78 CNS, 68.7 µM.
For `N#CC(C(=O)/C(=N\NC(N)=O)C(C#N)c1ccc(Cl)cc1)c1ccc(Cl)cc1` (stereo unspecified), the TGI in the experiment with 786-0 renal, in the experiment on COLO 205 colon, with HOP-18 NSCLC, with M19-MEL melanoma and in the experiment on SNB-78 CNS was greater than 100 µM in each case.
As to `C/C(CC(=O)Nc1ccc(C)c(C)c1)=N\N(c1ccccc1)c1ccccc1`, the TGI in the experiment with 786-0 renal was greater than 100 µM; with COLO 205 colon, 34.6 µM; with DMS 273 small cell lung, 33.5 µM; with HOP-18 NSCLC, greater than 100 µM; in the experiment with SNB-78 CNS it was greater than 100 µM.
In the case of `CN1C(=O)c2ccccc2NC(=O)C12O[C@@H]2c1ccccc1` (stereo partly specified), the TGI in the experiment with 786-0 renal, with COLO 205 colon, in the experiment with HS 578T breast, in the experiment on MDA-MB-231 breast, with NCI/ADR-RES ovarian and in the experiment with T-47D breast was greater than 100 µM in each case.
In the case of `CC(NCCC(c1ccccc1)c1ccccc1)c1ccccc1` (stereo unspecified), the GI50 in the experiment with 786-0 renal was 1.81 µM; in the experiment on COLO 205 colon, 1.53 µM; with HS 578T breast, 4.04 µM; in the experiment with MDA-MB-231 breast, 2.17 µM; in the experiment with NCI/ADR-RES ovarian, 2.77 µM; in the experiment on T-47D breast, 1.59 µM. The TGI with 786-0 renal was 3.67 µM; with COLO 205 colon it was 2.85 µM; with HS 578T breast it was 23.9 µM; in the experiment with MDA-MB-231 breast, 5.74 µM; in the experiment on NCI/ADR-RES ovarian, 7.68 µM; in the experiment with T-47D breast, 3.29 µM.
Turning to `COc1cc(Cl)cc(-c2nn(-c3cccc(NC(=O)c4ccc(N5CCOCC5)c(C(F)(F)F)c4)c3)cc2-c2ccncc2)c1`, the GI50 in the experiment with 786-0 renal was 3.23 µM; with COLO 205 colon it was 22.2 µM; with HS 578T breast it was 6.48 µM; in the experiment with MDA-MB-231 breast it was 2.83 µM; with NCI/ADR-RES ovarian it was 6.17 µM; in the experiment with T-47D breast it was 10.4 µM. Further, the TGI was 29.8 µM in the experiment on 786-0 renal; greater than 100 µM with COLO 205 colon; greater than 100 µM with HS 578T breast; 32.4 µM in the experiment on MDA-MB-231 breast; greater than 100 µM in the experiment with NCI/ADR-RES ovarian; greater than 100 µM in the experiment on T-47D breast.
On to `COc1ccc2nc3ccccc3c(NCc3ccc(F)cc3)c2c1`, for which the GI50 with 786-0 renal is 1.87 µM; with COLO 205 colon, 1.11 µM; in the experiment on HS 578T breast, 2.22 µM; in the experiment on MDA-MB-231 breast it was 1.85 µM; in the experiment with NCI/ADR-RES ovarian, 1.82 µM; in the experiment on T-47D breast it was 3.11 µM. Also, the TGI in the experiment on 786-0 renal was 6.82 µM; in the experiment on COLO 205 colon, 2.78 µM; in the experiment with HS 578T breast it was 12.1 µM; in the experiment on MDA-MB-231 breast, 7.26 µM; in the experiment on NCI/ADR-RES ovarian, 8.24 µM; in the experiment with T-47D breast it was 13.6 µM.
Turning to `O=C(Nc1ccc(Br)cc1F)c1cc(Cl)ccc1O`, the GI50 was 2.54 µM with 786-0 renal; 2.74 µM in the experiment with COLO 205 colon; 0.327 µM with HS 578T breast; 0.554 µM in the experiment on MDA-MB-231 breast; 0.749 µM in the experiment with NCI/ADR-RES ovarian; 0.466 µM in the experiment with T-47D breast. In addition, the TGI in the experiment with 786-0 renal was found to be 7.62 µM; in the experiment with COLO 205 colon, 8.2 µM; in the experiment with HS 578T breast, 2.81 µM; with MDA-MB-231 breast, 5.23 µM; in the experiment with NCI/ADR-RES ovarian, 5.67 µM; with T-47D breast it was 4.83 µM.
For `CN1CCN(c2ccc(Nc3cc(-c4cccc(-n5ccc6cc(C7CC7)cc(F)c6c5=O)c4CO)cn(C)c3=O)nc2)CC1`, the GI50 in the experiment with 786-0 renal was 2.01 µM; with COLO 205 colon, 2.22 µM; with HS 578T breast it was 4.99 µM; in the experiment with MDA-MB-231 breast it was 2.26 µM; with NCI/ADR-RES ovarian, 8.03 µM; with T-47D breast, 3.04 µM. Also, the TGI with 786-0 renal came to 4.44 µM; in the experiment with COLO 205 colon it was 5.72 µM; with HS 578T breast, 25.3 µM; in the experiment on MDA-MB-231 breast, 6.17 µM; in the experiment on NCI/ADR-RES ovarian it was 33.4 µM; with T-47D breast, 15.9 µM.
As to `CCC(C)(C)c1ccc(OCCCCNC(=O)c2ccc3ccccc3c2O)c(C(C)(C)CC)c1`, the TGI in the experiment with 786-0 renal was 93.5 µM; with COLO 205 colon it was 34.2 µM; in the experiment with HS 578T breast it was greater than 100 µM; in the experiment with MDA-MB-231 breast, greater than 100 µM; in the experiment on NCI/ADR-RES ovarian it was greater than 100 µM; in the experiment on T-47D breast it was greater than 100 µM.
`COC(=O)/C(=C/c1ccc(OC)cc1)C(C(=O)O)=C1CCCC1`: the TGI in the experiment on 786-0 renal, in the experiment with COLO 205 colon, in the experiment with DMS 273 small cell lung, in the experiment with M19-MEL melanoma and in the experiment on SNB-78 CNS was greater than 100 µM throughout.
